Article PMC11791213, “Elucidating ligand interactions and small-molecule activation in the pyrrolnitrin biosynthetic enzyme PrnB” (The Journal of Biological Chemistry, 2024)

Legend:
FbPrnB [1] = molecular target: T1, FbPrnB (Flavobacteriales bacterium, UniProt A0AC62AEF3); test: X-ray crystal structure of the binary complex; assay type: binding
T1 construct: N-terminal His-tag
T1 sequence (A0AC62AEF3 1-350): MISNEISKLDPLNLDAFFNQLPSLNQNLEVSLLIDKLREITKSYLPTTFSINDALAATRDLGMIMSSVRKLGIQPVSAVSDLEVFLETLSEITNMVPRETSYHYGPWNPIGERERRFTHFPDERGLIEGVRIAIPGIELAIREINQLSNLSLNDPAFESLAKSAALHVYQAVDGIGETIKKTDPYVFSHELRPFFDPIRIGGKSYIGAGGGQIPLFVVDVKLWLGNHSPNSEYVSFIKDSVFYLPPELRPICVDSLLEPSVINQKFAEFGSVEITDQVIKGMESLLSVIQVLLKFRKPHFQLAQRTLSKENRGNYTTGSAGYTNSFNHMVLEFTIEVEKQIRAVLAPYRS

PsPrnB [2] = molecular target: T2, PsPrnB; test: UV-visible absorption titration of the ferric enzyme; resonance Raman; assay type: binding, Pseudomonas sp. ADAK18
T2 construct: gene prnB; N-terminal His6-tag (TEV-cleavable)

PsPrnB [3] = molecular target: T2, PsPrnB; test: UV-visible absorption titration of the ferric enzyme; EPR; resonance Raman; assay type: binding, Pseudomonas sp. ADAK18
FbPrnB [4] = molecular target: T1, FbPrnB; test: X-ray crystal structure of the binary complex; UV-visible; resonance Raman; assay type: binding
FbPrnB [5] = molecular target: T1, FbPrnB; test: X-ray crystal structure of the binary complex ([…] and […] occupancy); assay type: binding

| Compound | X-ray crystal structure of the binary complex (FbPrnB [1]) | Kd (PsPrnB [2]) [µM] | Kd (PsPrnB [3]) [µM] | X-ray crystal structure of the binary complex; UV-visible; resonance Raman (FbPrnB [4]) | X-ray crystal structure of the binary complex (75% and 90% occupancy) (FbPrnB [5]) |
| --- | --- | --- | --- | --- | --- |
| N[C@@H](Cc1c[nH]c2c(Cl)cccc12)C(=O)O [7-Cl-Trp, 7-chloro-L-tryptophan] | binding conformations of 7-Cl-Trp and Trp are nearly identical (Fig. S7A), with the amino group directly coordinating to the iron center | 1.9 | – | – | – |
| O=C(O)CCc1c[nH]c2ccccc12 [IDPA, 3-indolepropionic acid] | The structure of the IDPA-bound complex aligns well with our spectroscopic data, confirming that IDPA does not directly interact with the iron | – | 9.1 | – | – |
| N[C@@H](Cc1c[nH]c2ccccc12)C(=O)O [Trp, L-tryptophan] | – | – | 4.1 | binding conformations of 7-Cl-Trp and Trp are nearly identical (Fig. S7A), with the amino group directly coordinating to the iron center | – |
| NCCc1c[nH]c2ccccc12 [TAM, tryptamine] | – | – | 411 | – | The amine tail is flexible and adopts two distinct conformations in Chain A (Fig. 5D), with one remaining in coordination |
